Measured values from patent publication US7893055B2, “HIV integrase inhibitors” (priority 2006, dated 2011).

These compounds were tested against T1, HIV-integrase (Human immunodeficiency virus type 1 group M subtype B, UniProt P12497) (assay: HIV-Integrase Inhibition Activity (SPA strand transfer assay)). Conditions: recombinant integrase, SPA beads, P33 labeled target DNA; read-out: Activity (IC50 class, HIV-integrase inhibition).
T1 construct: Recombinant integrase (0.26 ng) was incubated with the beads
Assay type: biochemical
Method: HIV-Integrase InhibitionActivity. To evaluate in-vitro activity against HIV-integrase, 5 pmole of biotin labeled substrate DNA was bound to 100 μg of Streptavidin coated PVT SPA beads (Amersham Pharmacia Biotech). Recombinant integrase (0.26 ng) was incubated with the beads for 90 min at 37° C. Unbound enzyme was removed by washing the complex followed by addition of inhibitors and 0.1 fmol of P33 labeled target DNA. The reaction was stopped by adding EDTA to a final concentration of 10 mM. Samples were counted in TopCountNXT (Packard) and the CPM was used as a measure of integration. The reaction condition was as described in A. Engelman and R. Craigie, J. Virol. 69, 5908-5911 (1995). The sequences of substrate and target DNA were described in Nucleic Acid Research 22, 1121-1122 (1994). Activity equal to A refers to a compound having IC50=0.002 to 0.10 μM while B and C denote compounds having IC50=0.1 to 1.0 μM and IC50≧1.0 μM respectively.

| Compound | IC50 |
| --- | --- |
| Cn1nc(CNC(=O)c2nc3n(c(=O)c2O)CCOC3(C)C)c2ccccc21 [Example 13, Pyrimido[2,1-c][1,4]oxazine-2-carboxamide, 4,6,7,9-tetrahydro-3-hydroxy-9,9-dimethyl-N-[(1-methyl-1H-indazol-3-yl)methyl]-4-oxo-] | 2 to 100 nM |
| CC1(C)OCCn2c1nc(C(=O)NCCc1c[nH]c3ccc(F)cc13)c(O)c2=O [Example 14, Pyrimido[2,1-c][1,4]oxazine-2-carboxamide, N-[2-(5-fluoro-1H-indol-3-yl)ethyl]-4,6,7,9-tetrahydro-3-hydroxy-9,9-dimethyl-4-oxo-] | 2 to 100 nM |
| CC1(C)OCCn2c1nc(C(=O)NCc1cn3ccccc3n1)c(O)c2=O [Example 15, Pyrimido[2,1-c][1,4]oxazine-2-carboxamide, 4,6,7,9-tetrahydro-3-hydroxy-N-(imidazo[1,2-a]pyridin-2-ylmethyl)-9,9-dimethyl-4-oxo-] | 2 to 100 nM |
| CNC(=O)c1ccc(CNC(=O)c2nc3n(c(=O)c2O)CCOC3(C)C)o1 [Example 16, 3-Hydroxy-9,9-dimethyl-N-((5-(methylcarbamoyl)-2-furyl)methyl)-4-oxo-4,6,7,9-tetrahydropyrimido[2,1-c][1,4]oxazine-2-carboxamider] | 100 to 1000 nM |
| CC1(C)OCCn2c1nc(C(=O)NCc1ccc(C(=O)N3CCOCC3)o1)c(O)c2=O [Example 17, Pyrimido[2,1-c][1,4]oxazine-2-carboxamide, 4,6,7,9-tetrahydro-3-hydroxy-9,9-dimethyl-N-[[5-(4-morpholinylcarbonyl)-2-furanyl]methyl]-4-oxo-] | ≥ 1000 nM |
| Cc1cc(CNC(=O)c2nc3n(c(=O)c2O)CCOC3(C)C)nn1C(F)F [Example 18, Pyrimido[2,1-c][1,4]oxazine-2-carboxamide, N-[[1-(difluoromethyl)-5-methyl-1H-pyrazol-3-yl]methyl]-4,6,7,9-tetrahydro-3-hydroxy-9,9-dimethyl-4-oxo-] | 2 to 100 nM |
| Cc1cc(CNC(=O)c2nc3n(c(=O)c2O)CCOC3(C)C)nn1C(C)C [Example 19, Pyrimido[2,1-c][1,4]oxazine-2-carboxamide, 4,6,7,9-tetrahydro-3-hydroxy-9,9-dimethyl-N-[[5-methyl-1-(1-methylethyl)-1H-pyrazol-3-yl]methyl]-4-oxo-] | 2 to 100 nM |
| Cc1cc(CNC(=O)c2nc3n(c(=O)c2O)CCOC3(C)C)nn1CCF [Example 20, Pyrimido[2,1-c][1,4]oxazine-2-carboxamide, N-[[1-(2-fluoroethyl)-5-methyl-1H-pyrazol-3-yl]methyl]-4,6,7,9-tetrahydro-3-hydroxy-9,9-dimethyl-4-oxo-] | 2 to 100 nM |
| Cc1cc(C)n2nc(CNC(=O)c3nc4n(c(=O)c3O)CCOC4(C)C)nc2n1 [Example 21, Pyrimido[2,1-c][1,4]oxazine-2-carboxamide, N-[(5,7-dimethyl[1,2,4]triazolo[1,5-a]pyrimidin-2-yl)methyl]-4,6,7,9-tetrahydro-3-hydroxy-9,9-dimethyl-4-oxo-] | ≥ 1000 nM |
| CC1(C)OCCn2c1nc(C(=O)NCc1nc3ccccc3[nH]1)c(O)c2=O [Example 22, Pyrimido[2,1-c][1,4]oxazine-2-carboxamide, N-(1H-benzimidazol-2-ylmethyl)-4,6,7,9-tetrahydro-3-hydroxy-9,9-dimethyl-4-oxo-] | ≥ 1000 nM |
| Cc1ncsc1CNC(=O)c1nc2n(c(=O)c1O)CCOC2(C)C [Example 23, Pyrimido[2,1-c][1,4]oxazine-2-carboxamide, 4,6,7,9-tetrahydro-3-hydroxy-9,9-dimethyl-N-[(4-methyl-5-thiazolyl)methyl]-4-oxo-] | ≥ 1000 nM |
| Cc1nc(C)c(CNC(=O)c2nc3n(c(=O)c2O)CCOC3(C)C)s1 [Example 24, Pyrimido[2,1-c][1,4]oxazine-2-carboxamide, N-[(2,4-dimethyl-5-thiazolyl)methyl]-4,6,7,9-tetrahydro-3-hydroxy-9,9-dimethyl-4-oxo-] | 2 to 100 nM |
| Cn1cc(CNC(=O)c2nc3n(c(=O)c2O)CCOC3(C)C)nn1 [Example 25, Pyrimido[2,1-c][1,4]oxazine-2-carboxamide, 4,6,7,9-tetrahydro-3-hydroxy-9,9-dimethyl-N-[(1-methyl-1H-1,2,3-triazol-4-yl)methyl]-4-oxo-] | ≥ 1000 nM |
| Cn1cc(CN(Cc2cn(C)nn2)C(=O)c2nc3n(c(=O)c2O)CCOC3(C)C)nn1 [Example 26, Pyrimido[2,1-c][1,4]oxazine-2-carboxamide, 4,6,7,9-tetrahydro-3-hydroxy-9,9-dimethyl-N,N-bis[(1-methyl-1H-1,2,3-triazol-4-yl)methyl]-4-oxo-] | ≥ 1000 nM |
| CC1(C)OCCn2c1nc(C(=O)NCc1ccc(Cc3ccccc3)o1)c(O)c2=O [Example 27, Pyrimido[2,1-c][1,4]oxazine-2-carboxamide, 4,6,7,9-tetrahydro-3-hydroxy-9,9-dimethyl-4-oxo-N-[[5-(phenylmethyl)-2-furanyl]methyl]] | 2 to 100 nM |
| CC1(C)OCCn2c1nc(C(=O)NCc1cccs1)c(O)c2=O [Example 28, Pyrimido[2,1-c][1,4]oxazine-2-carboxamide, 4,6,7,9-tetrahydro-3-hydroxy-9,9-dimethyl-4-oxo-N-(2-thienylmethyl)-] | 2 to 100 nM |
| Cc1ccc(CNC(=O)c2nc3n(c(=O)c2O)CCOC3(C)C)s1 [Example 29, Pyrimido[2,1-c][1,4]oxazine-2-carboxamide, 4,6,7,9-tetrahydro-3-hydroxy-9,9-dimethyl-N-[(5-methyl-2-thienyl)methyl]-4-oxo-] | 2 to 100 nM |
| Cc1csc(CNC(=O)c2nc3n(c(=O)c2O)CCOC3(C)C)c1 [Example 30, Pyrimido[2,1-c][1,4]oxazine-2-carboxamide, 4,6,7,9-tetrahydro-3-hydroxy-9,9-dimethyl-N-[(4-methyl-2-thienyl)methyl]-4-oxo-] | 2 to 100 nM |
| Cc1cc(CNC(=O)c2nc3n(c(=O)c2O)CCOC3(C)C)sc1C [Example 31, N-((4,5-dimethyl-2-thienyl)methyl)-3-hydroxy-9,9-dimethyl-4-oxo-4,6,7,9-tetrahydropyrimido[2,1-c][1,4]oxazine-2-carboxamide] | 2 to 100 nM |
| Cc1cc(CNC(=O)c2nc3n(c(=O)c2O)CCOC3(C)C)cs1 [Example 32, Pyrimido[2,1-c][1,4]oxazine-2-carboxamide, 4,6,7,9-tetrahydro-3-hydroxy-9,9-dimethyl-N-[(5-methyl-3-thienyl)methyl]-4-oxo-] | 2 to 100 nM |
| Cc1cc(Br)c(CNC(=O)c2nc3n(c(=O)c2O)CCOC3(C)C)s1 [Example 33, Pyrimido[2,1-c][1,4]oxazine-2-carboxamide, N-[(3-bromo-5-methyl-2-thienyl)methyl]-4,6,7,9-tetrahydro-3-hydroxy-9,9-dimethyl-4-oxo-] | 2 to 100 nM |
| Cc1cc(C#N)c(CNC(=O)c2nc3n(c(=O)c2O)CCOC3(C)C)s1 [Example 34, Pyrimido[2,1-c][1,4]oxazine-2-carboxamide, N-[(3-cyano-5-methyl-2-thienyl)methyl]-4,6,7,9-tetrahydro-3-hydroxy-9,9-dimethyl-4-oxo-] | 2 to 100 nM |
| CC1=CC=C(CNC(=O)c2nc3n(c(=O)c2O)CCOC3(C)C)S1(=O)=O [Example 35, Pyrimido[2,1-c][1,4]oxazine-2-carboxamide, 4,6,7,9-tetrahydro-3-hydroxy-9,9-dimethyl-N-[(5-methyl-1,1-dioxido-2-thienyl)methyl]-4-oxo-] | ≥ 1000 nM |
